Results on nine molecules are retold here after PubChem BioAssay (NCI).

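Exposure lasted 48 hours, with cells grown in 96-well plates and compounds tested at five concentrations. TGI: total growth inhibition.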 Where only a bound is given, the exact number is not on record here.

One experiment concerns OVCAR-8 ovarian. In words: inhibition of tumour cell growth, NCI panel, 48 h.
For `COCCOCOc1ccc(OCc2ccccc2)cc1`, the TGI is above 100 µM.

In the case of `C=C(C(=O)C(=O)Oc1ccc(Cl)cc1)C(=O)c1ccc(C)cc1`, the TGI is above 100 µM.

The next experiment concerns SK-OV-3 ovarian. In words: inhibition of tumour cell growth, NCI panel, 48 h.
Take `COC(=O)C1C(C(=O)OC)N(Cc2ccccc2)C(=O)N1Cc1ccccc1` (stereo unspecified): the TGI was above 100 µM.

With `CCOC(=O)c1csc(NC(=O)CCN(CC)CC)n1`, the TGI was above 100 µM.

Consider `CCN1c2ccccc2-n2c(C)nnc2-c2c1n[nH]c2-c1ccccc1`, for which the TGI is above 100 µM.

Regarding `C[C@]12CC[C@@H]3c4ccc(O)cc4CC[C@H]3[C@@H]1C/C(=C\c1ccncc1)C2=O`, the TGI was above 100 µM.

As to `C=CCN1C(=O)/C(=C/c2ccccc2)N=C1SC1OC(COC(=O)c2ccccc2)C(OC(=O)c2ccccc2)C1OC(=O)c1ccccc1` (stereo unspecified), the TGI is above 100 µM.

As to `C#CCCCCC#Cc1ccccc1C(=O)OC`, the TGI is above 100 µM.

Turning to `COCCOCOc1ccc(OCc2ccccc2)cc1`, the TGI was above 100 µM.

Molecule `C=C(C(=O)C(=O)Oc1ccc(Cl)cc1)C(=O)c1ccc(C)cc1` had a TGI above 100 µM.

The subject of another experiment is UACC-62 melanoma. In words: inhibition of tumour cell growth, NCI panel, 48 h.
The molecule `COC(=O)C1C(C(=O)OC)N(Cc2ccccc2)C(=O)N1Cc1ccccc1` (stereo unspecified) yielded a TGI above 100 µM.

Take `CCOC(=O)c1csc(NC(=O)CCN(CC)CC)n1`: the TGI was above 100 µM.

Molecule `CCN1c2ccccc2-n2c(C)nnc2-c2c1n[nH]c2-c1ccccc1` yielded a TGI of 98.9 µM.

In the case of `C[C@]12CC[C@@H]3c4ccc(O)cc4CC[C@H]3[C@@H]1C/C(=C\c1ccncc1)C2=O`, the TGI was determined as 50.9 µM.

For the molecule `C=CCN1C(=O)/C(=C/c2ccccc2)N=C1SC1OC(COC(=O)c2ccccc2)C(OC(=O)c2ccccc2)C1OC(=O)c1ccccc1` (stereo unspecified), the TGI is above 100 µM.

In the case of `C#CCCCCC#Cc1ccccc1C(=O)OC`, the TGI stood at 94.7 µM.

Molecule `C/C(CCOC1CCCCO1)=C(\C)[Si](C)(C)C` (stereo unspecified) came in with a TGI above 100 µM.

Molecule `COCCOCOc1ccc(OCc2ccccc2)cc1` displayed a TGI above 100 µM.

`C=C(C(=O)C(=O)Oc1ccc(Cl)cc1)C(=O)c1ccc(C)cc1` gave a TGI above 100 µM.

A further experiment concerns NCI-H23 lung. Nature of the experiment: inhibition of tumour cell growth, NCI panel, 48 h.
With `COC(=O)C1C(C(=O)OC)N(Cc2ccccc2)C(=O)N1Cc1ccccc1` (stereo unspecified), the TGI was above 100 µM.

Turning to `CCOC(=O)c1csc(NC(=O)CCN(CC)CC)n1`, the TGI was above 100 µM.

In the case of `CCN1c2ccccc2-n2c(C)nnc2-c2c1n[nH]c2-c1ccccc1`, the TGI is above 100 µM.

Take `C[C@]12CC[C@@H]3c4ccc(O)cc4CC[C@H]3[C@@H]1C/C(=C\c1ccncc1)C2=O`: the TGI was above 100 µM.

Take `C=CCN1C(=O)/C(=C/c2ccccc2)N=C1SC1OC(COC(=O)c2ccccc2)C(OC(=O)c2ccccc2)C1OC(=O)c1ccccc1` (stereo unspecified): the TGI was above 100 µM.

As to `C#CCCCCC#Cc1ccccc1C(=O)OC`, the TGI is above 100 µM.

On to `C/C(CCOC1CCCCO1)=C(\C)[Si](C)(C)C` (stereo unspecified), for which the TGI was above 100 µM.

Turning to `COCCOCOc1ccc(OCc2ccccc2)cc1`, the TGI is above 100 µM.

For the molecule `C=C(C(=O)C(=O)Oc1ccc(Cl)cc1)C(=O)c1ccc(C)cc1`, the TGI is above 100 µM.

In a further experiment the test system is CAKI-1 renal. Nature of the experiment: inhibition of tumour cell growth, NCI panel, 48 h.
`COC(=O)C1C(C(=O)OC)N(Cc2ccccc2)C(=O)N1Cc1ccccc1` (stereo unspecified) registered a TGI above 100 µM.

In the case of `CCOC(=O)c1csc(NC(=O)CCN(CC)CC)n1`, the TGI came to 42.8 µM.

Molecule `C[C@]12CC[C@@H]3c4ccc(O)cc4CC[C@H]3[C@@H]1C/C(=C\c1ccncc1)C2=O` came in with a TGI above 100 µM.

Take `C=CCN1C(=O)/C(=C/c2ccccc2)N=C1SC1OC(COC(=O)c2ccccc2)C(OC(=O)c2ccccc2)C1OC(=O)c1ccccc1` (stereo unspecified): the TGI was above 100 µM.

Take `COCCOCOc1ccc(OCc2ccccc2)cc1`: the TGI is above 100 µM.

With `C=C(C(=O)C(=O)Oc1ccc(Cl)cc1)C(=O)c1ccc(C)cc1`, the TGI was above 100 µM.

The subject of a further experiment is COLO 205 colon. In words: inhibition of tumour cell growth, NCI panel, 48 h.
On to `COC(=O)C1C(C(=O)OC)N(Cc2ccccc2)C(=O)N1Cc1ccccc1` (stereo unspecified), for which the TGI was above 100 µM.

As for `CCOC(=O)c1csc(NC(=O)CCN(CC)CC)n1`, the TGI is 84.8 µM.

`CCN1c2ccccc2-n2c(C)nnc2-c2c1n[nH]c2-c1ccccc1` had a TGI above 100 µM.

The molecule `C[C@]12CC[C@@H]3c4ccc(O)cc4CC[C@H]3[C@@H]1C/C(=C\c1ccncc1)C2=O` registered a TGI above 100 µM.

Take `C=CCN1C(=O)/C(=C/c2ccccc2)N=C1SC1OC(COC(=O)c2ccccc2)C(OC(=O)c2ccccc2)C1OC(=O)c1ccccc1` (stereo unspecified): the TGI was above 100 µM.

Turning to `C#CCCCCC#Cc1ccccc1C(=O)OC`, the TGI is above 100 µM.

Regarding `C/C(CCOC1CCCCO1)=C(\C)[Si](C)(C)C` (stereo unspecified), the TGI is above 100 µM.

For the molecule `COCCOCOc1ccc(OCc2ccccc2)cc1`, the TGI is above 100 µM.

With `C=C(C(=O)C(=O)Oc1ccc(Cl)cc1)C(=O)c1ccc(C)cc1`, the TGI is above 100 µM.

The next experiment concerns HCT-116 colon. In words: inhibition of tumour cell growth, NCI panel, 48 h.
`COC(=O)C1C(C(=O)OC)N(Cc2ccccc2)C(=O)N1Cc1ccccc1` (stereo unspecified) returned a TGI above 100 µM.

The molecule `CCN1c2ccccc2-n2c(C)nnc2-c2c1n[nH]c2-c1ccccc1` displayed a TGI above 100 µM.

Molecule `C#CCCCCC#Cc1ccccc1C(=O)OC` returned a TGI of 23 µM.

As for `C/C(CCOC1CCCCO1)=C(\C)[Si](C)(C)C` (stereo unspecified), the TGI is above 100 µM.

On to `COCCOCOc1ccc(OCc2ccccc2)cc1`, for which the TGI was above 100 µM.

Molecule `C=C(C(=O)C(=O)Oc1ccc(Cl)cc1)C(=O)c1ccc(C)cc1` gave a TGI of 30.3 µM.

For the next experiment, the system named is SR leukemia. In words: inhibition of tumour cell growth, NCI panel, 48 h.
`CCOC(=O)c1csc(NC(=O)CCN(CC)CC)n1` yielded a TGI above 100 µM.

`CCN1c2ccccc2-n2c(C)nnc2-c2c1n[nH]c2-c1ccccc1` showed a TGI of 59.2 µM.

In the case of `C[C@]12CC[C@@H]3c4ccc(O)cc4CC[C@H]3[C@@H]1C/C(=C\c1ccncc1)C2=O`, the TGI is above 100 µM.

In the case of `C=CCN1C(=O)/C(=C/c2ccccc2)N=C1SC1OC(COC(=O)c2ccccc2)C(OC(=O)c2ccccc2)C1OC(=O)c1ccccc1` (stereo unspecified), the TGI was above 100 µM.

With `C#CCCCCC#Cc1ccccc1C(=O)OC`, the TGI was found to be 29.2 µM.

`C/C(CCOC1CCCCO1)=C(\C)[Si](C)(C)C` (stereo unspecified) registered a TGI above 100 µM.

On to `C=C(C(=O)C(=O)Oc1ccc(Cl)cc1)C(=O)c1ccc(C)cc1`, for which the TGI stood at 57.6 µM.

The test system of the next experiment is SK-MEL-5 melanoma. In words: inhibition of tumour cell growth, NCI panel, 48 h.
As for `COC(=O)C1C(C(=O)OC)N(Cc2ccccc2)C(=O)N1Cc1ccccc1` (stereo unspecified), the TGI was above 100 µM.

In the case of `CCOC(=O)c1csc(NC(=O)CCN(CC)CC)n1`, the TGI was above 100 µM.

The molecule `CCN1c2ccccc2-n2c(C)nnc2-c2c1n[nH]c2-c1ccccc1` registered a TGI of 35.3 µM.

`C[C@]12CC[C@@H]3c4ccc(O)cc4CC[C@H]3[C@@H]1C/C(=C\c1ccncc1)C2=O` yielded a TGI of 27.9 µM.

Molecule `C=CCN1C(=O)/C(=C/c2ccccc2)N=C1SC1OC(COC(=O)c2ccccc2)C(OC(=O)c2ccccc2)C1OC(=O)c1ccccc1` (stereo unspecified) had a TGI above 100 µM.

`C#CCCCCC#Cc1ccccc1C(=O)OC` displayed a TGI above 100 µM.

Turning to `C/C(CCOC1CCCCO1)=C(\C)[Si](C)(C)C` (stereo unspecified), the TGI was above 100 µM.

`COCCOCOc1ccc(OCc2ccccc2)cc1` had a TGI above 100 µM.

For `C=C(C(=O)C(=O)Oc1ccc(Cl)cc1)C(=O)c1ccc(C)cc1`, the TGI was above 100 µM.

In another experiment the test system is KM12 colon. Nature of the experiment: inhibition of tumour cell growth, NCI panel, 48 h.
Consider `COC(=O)C1C(C(=O)OC)N(Cc2ccccc2)C(=O)N1Cc1ccccc1` (stereo unspecified), for which the TGI is above 100 µM.

The molecule `CCOC(=O)c1csc(NC(=O)CCN(CC)CC)n1` displayed a TGI of 52.8 µM.

`CCN1c2ccccc2-n2c(C)nnc2-c2c1n[nH]c2-c1ccccc1` had a TGI above 100 µM.

`C[C@]12CC[C@@H]3c4ccc(O)cc4CC[C@H]3[C@@H]1C/C(=C\c1ccncc1)C2=O` showed a TGI of 37.6 µM.

`C=CCN1C(=O)/C(=C/c2ccccc2)N=C1SC1OC(COC(=O)c2ccccc2)C(OC(=O)c2ccccc2)C1OC(=O)c1ccccc1` (stereo unspecified) showed a TGI above 100 µM.

On to `C#CCCCCC#Cc1ccccc1C(=O)OC`, for which the TGI is above 100 µM.

`C/C(CCOC1CCCCO1)=C(\C)[Si](C)(C)C` (stereo unspecified) registered a TGI above 100 µM.

For `COCCOCOc1ccc(OCc2ccccc2)cc1`, the TGI was above 100 µM.

`C=C(C(=O)C(=O)Oc1ccc(Cl)cc1)C(=O)c1ccc(C)cc1` gave a TGI of 42.5 µM.

For the next experiment, the system named is A498 renal. Nature of the experiment: inhibition of tumour cell growth, NCI panel, 48 h.
Molecule `CCOC(=O)c1csc(NC(=O)CCN(CC)CC)n1` yielded a TGI above 100 µM.

The molecule `C[C@]12CC[C@@H]3c4ccc(O)cc4CC[C@H]3[C@@H]1C/C(=C\c1ccncc1)C2=O` came in with a TGI of 91.4 µM.

`C=CCN1C(=O)/C(=C/c2ccccc2)N=C1SC1OC(COC(=O)c2ccccc2)C(OC(=O)c2ccccc2)C1OC(=O)c1ccccc1` (stereo unspecified) returned a TGI above 100 µM.

For `C#CCCCCC#Cc1ccccc1C(=O)OC`, the TGI is above 100 µM.

`C/C(CCOC1CCCCO1)=C(\C)[Si](C)(C)C` (stereo unspecified) gave a TGI above 100 µM.

`COCCOCOc1ccc(OCc2ccccc2)cc1` gave a TGI of 99.5 µM.

Molecule `C=C(C(=O)C(=O)Oc1ccc(Cl)cc1)C(=O)c1ccc(C)cc1` had a TGI above 100 µM.
